Data taken from ChEMBL document CHEMBL5321222, “N(14)-substituted evodiamine derivatives as dual topoisomerase 1/tubulin-Inhibiting anti-gastrointestinal tumor agents” (Eur J Med Chem, 2023).
pIC50: −log10 of the molar value. Calls of active or inactive are those of the source. No cut-off for these calls is given here.

Legend:
[1] = target: T1, DNA topoisomerase 1 (Homo sapiens) (UniProt P11387); assay: Inhibition of topoisomerase 1 (unknown origin) at 50 uM using PBR322 DNA as substrate incubated for 30 mins by agarose gel electrophoresis relative to control
T1 sequence (whole entry): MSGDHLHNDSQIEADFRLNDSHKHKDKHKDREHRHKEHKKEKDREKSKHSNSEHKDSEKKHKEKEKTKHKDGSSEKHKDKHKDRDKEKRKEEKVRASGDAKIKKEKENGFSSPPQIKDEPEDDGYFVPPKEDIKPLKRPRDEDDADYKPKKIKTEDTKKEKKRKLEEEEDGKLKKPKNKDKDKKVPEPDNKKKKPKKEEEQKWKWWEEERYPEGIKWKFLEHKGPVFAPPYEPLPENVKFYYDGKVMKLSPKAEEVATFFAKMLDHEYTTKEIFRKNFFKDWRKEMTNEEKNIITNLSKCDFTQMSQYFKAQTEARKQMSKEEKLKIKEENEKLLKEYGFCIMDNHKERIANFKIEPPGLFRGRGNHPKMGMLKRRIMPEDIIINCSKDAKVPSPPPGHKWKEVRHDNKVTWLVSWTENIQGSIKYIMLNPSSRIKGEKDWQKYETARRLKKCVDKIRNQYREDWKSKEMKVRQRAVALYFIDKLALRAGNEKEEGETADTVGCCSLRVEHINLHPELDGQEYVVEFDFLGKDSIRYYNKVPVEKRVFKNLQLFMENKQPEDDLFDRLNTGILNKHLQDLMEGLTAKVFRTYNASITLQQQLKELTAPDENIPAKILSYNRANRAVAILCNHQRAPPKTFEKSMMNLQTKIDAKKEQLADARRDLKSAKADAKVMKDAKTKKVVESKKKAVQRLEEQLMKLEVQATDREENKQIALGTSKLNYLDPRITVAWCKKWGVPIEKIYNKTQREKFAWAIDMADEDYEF

Tubulin (Homo sapiens) = Tubulin (Homo sapiens) (UniProt P68371+Q9H4B7+P0DPH7+P68366+Q13509+Q71U36+P04350+Q3ZCM7+P07437+P68363+Q9BQE3+Q6PEY2+Q13885+Q9BVA1+Q9BUF5); assay: Induction of microtubule disruption in human RKO cells assessed as atrophied nucleus at 50 to 200 nM incubated for 24 hrs by laser confocal microscopic analysis; format: cell-based; details: dose 50-200 nM
[2] = target: T1, DNA topoisomerase 1 (Homo sapiens); assay: Inhibition of topoisomerase 1 (unknown origin) at 200 uM using PBR322 DNA as substrate incubated for 30 mins by agarose gel electrophoresis
SGC-7901 = assay: Antiproliferative activity against human SGC-7901 cells assessed as reduction in cell viability incubated for 72 hrs by MTT assay; format: functional, cell-based; details: SGC-7901, 72 h
RKO [3] = assay: Antiproliferative activity against human RKO cells assessed as reduction in cell viability incubated for 24 hrs by BrdU staining based fluorescence microscopic analysis; format: functional; details: dose 10-90 nM
MGC-803 [4] = assay: Inhibition of colony formation in human MGC-803 cells at 90 nM incubated for 7 days by crystal violet staining based assay; format: functional, cell-based; details: time 7.0 day
MGC-803 [5] = assay: Inhibition of cell migration in human MGC-803 cells assessed as reduction in tumor wound healing incubated for 24 hrs by microscopic analysis; format: functional, cell-based; details: dose 10-90 nM
MGC-803 [6] = assay: Induction of cell cycle arrest in human MGC-803 cells assessed as accumulation of cells at G2/M phase at 0.05 uM incubated for 24 hrs by propidium iodide staining based flow cytometry analysis; format: functional
RKO [7] = assay: Induction of apoptosis in human RKO cells assessed as early apoptotic cells at 0.2 uM incubated for 24 hrs by propidium iodide and Annexin V/FITC staining based flow cytometry assay (reference value: 0.16%); format: functional
MGC-803 [8] = assay: Induction of morphological changes in human MGC-803 cells assessed as cell shrinkage at 0.05 to 0.2 uM incubated for 24 hrs by Giemsa staining based micrscopic analysis; format: functional; details: dose 0.05-0.2 µM
RKO [9] = assay: Induction of morphological changes in human RKO cells assessed as formation of apoptotic bodies at 0.05 to 0.2 uM incubated for 24 hrs by Giemsa staining based micrscopic analysis; format: functional, cell-based; details: dose 0.05-0.2 µM
RKO [10] = assay: Inhibition of colony formation in human RKO cells at 90 nM incubated for 7 days by crystal violet staining based assay; format: functional, cell-based; details: time 7.0 day

- inhibition [1]: 58.3%
- Activity (Tubulin (Homo sapiens)): Active
- inhibition [2]: Active
- pIC50 (SGC-7901): 7.05
Structure (SMILES): CCCN1c2ccccc2C(=O)N2CCc3c([nH]c4ccccc34)C21 (configuration not stated)
- Activity (RKO [3]): Dose-Dependent Effect
- inhibition (MGC-803 [4]): Active
- inhibition (MGC-803 [5]): Dose-Dependent Effect
- Activity (MGC-803 [6]): 40.55%
- Activity (RKO [7]): 14.35%
- Activity (MGC-803 [8]): Active
- Activity (RKO [9]): Active
- inhibition (RKO [10]): Active
